Source: patent publication US10052320B2, “Substituted quinoxalines as FGFR kinase inhibitors” (ASTEX THERAPEUTICS LIMITED, priority 2011, dated 2018)
Read-outs that look alike come from different tables or passages of the source.

Assays:
KDR (h) (VEGFR2) = KDR (h) (VEGFR2) (Homo sapiens, UniProt P35968); assay: KDR (VEGFR2) (enzymatic assay), TR-FRET; assay type: biochemical
Experimental: KDR (VEGFR2) (Enzymatic Assay)
In a final reaction volume of 30 μL, KDR (h) (150 ng/ml) was incubated with 50 mM HEPES pH 7.5, 6 mM MnCl2, 1 mM DTT, 0.1 mM Na3VO4, 0.01% Triton-X-100, 500 nM Btn-Flt3 and 3 μM ATP in the presence of compound (1% DMSO final). After incubation for 120 minutes at room temperature the reaction was stopped with 2.27 nM EU-anti P-Tyr, 7 mM EDTA, 31.25 nM SA-XL-665 and 0.02% BSA which was present for 60 minutes at room temperature. Time-Resolved Fluorescence Resonance Energy Transfer (TR-FRET) signal (ex340 nm. Em 620 nm, em 655 nm) was measured afterwards and results are expressed in RFU (Relative Fluorescence Units).

[1] = target: T1, Ba/F3-Flt3-transfected cells (Homo sapiens, UniProt P36888, cells depend on it, form not given); assay: Ba/F3-Flt3 (minus IL3) cellular proliferation assay, Alamar Blue; assay type: cell-based
T1 sequence (P36888 1-993): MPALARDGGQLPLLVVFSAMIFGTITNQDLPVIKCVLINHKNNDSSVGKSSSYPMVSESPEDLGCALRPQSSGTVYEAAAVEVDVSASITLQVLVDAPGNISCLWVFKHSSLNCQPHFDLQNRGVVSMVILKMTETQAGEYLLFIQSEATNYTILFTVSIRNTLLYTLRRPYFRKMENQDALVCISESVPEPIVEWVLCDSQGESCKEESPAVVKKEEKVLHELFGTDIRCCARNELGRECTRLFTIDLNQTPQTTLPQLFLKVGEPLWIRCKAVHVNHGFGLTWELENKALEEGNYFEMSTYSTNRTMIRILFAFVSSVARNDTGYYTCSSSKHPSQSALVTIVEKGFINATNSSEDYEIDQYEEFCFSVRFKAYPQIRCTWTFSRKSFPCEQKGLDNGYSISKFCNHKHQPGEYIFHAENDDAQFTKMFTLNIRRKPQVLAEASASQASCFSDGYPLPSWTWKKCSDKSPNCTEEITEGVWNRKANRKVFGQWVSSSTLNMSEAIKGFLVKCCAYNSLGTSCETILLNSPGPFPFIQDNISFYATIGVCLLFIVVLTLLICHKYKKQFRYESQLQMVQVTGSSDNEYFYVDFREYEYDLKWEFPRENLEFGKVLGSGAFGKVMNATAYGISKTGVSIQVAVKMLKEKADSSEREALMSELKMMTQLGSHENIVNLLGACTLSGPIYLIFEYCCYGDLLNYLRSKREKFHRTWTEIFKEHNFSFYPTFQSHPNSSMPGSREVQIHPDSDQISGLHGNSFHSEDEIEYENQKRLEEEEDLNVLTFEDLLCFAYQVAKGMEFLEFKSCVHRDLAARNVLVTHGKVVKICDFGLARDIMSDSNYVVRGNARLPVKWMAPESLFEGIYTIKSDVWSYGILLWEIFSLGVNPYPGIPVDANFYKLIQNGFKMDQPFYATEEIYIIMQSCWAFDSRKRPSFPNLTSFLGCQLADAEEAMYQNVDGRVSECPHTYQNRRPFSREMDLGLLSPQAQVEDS
Experimental: Ba/F3-Flt3 (Minus IL3 or Plus IL3) (Cellular Proliferation Assay)
Cells were put in an incubator at 37° C. and 5% CO2. After 24 hours, 10 μl of Alamar Blue solution (0.5 mM K3Fe(CN)6, 0.5 mM KaFe(CN)6, 0.15 mM Resazurin and 100 mM Phosphate Buffer) was added to the wells, incubated for 4 hours at 37° C. and 5% CO2 before RFU's (Relative Fluorescence Units) (ex. 540 nm., em. 590 nm.) were measured in a flurorescence plate reader. […]
(§1) In a 96 well plate, 180 μl cell culture medium (phenol red free RPMI-1640, 10% FBS, 2 mM L-Glutamine and 50 μg/ml Gentamycin) containing 10000 cells per well of Ba/F3-Flt3-transfected cells were pipette and 20 μl of compound dilution in DMSO was added. Cells were put in an incubator at 37° C. and 5% CO2. After 24 hours, 40 μl of Alamar Blue solution (0.5 mM K3Fe(CN)6, 0.5 mM KaFe(CN)6, 0.15 mM Resazurin and 100 mM Phosphate Buffer) was added to the wells, incubated for 4 hours at 37° C. and 5% CO2 before RFU's (Relative Fluorescence Units) (ex. 540 nm., em. 590 nm.) were measured in a flurorescence plate reader.

[2] = target: Ba/F3-FGFR4-transfected cells (Homo sapiens, UniProt P22455); assay: Ba/F3-FGFR4 cellular proliferation assay, Alamar Blue; assay type: cell-based
Ba/F3-FGFR4-transfected cells, sequence (P22455 whole entry, change not shown): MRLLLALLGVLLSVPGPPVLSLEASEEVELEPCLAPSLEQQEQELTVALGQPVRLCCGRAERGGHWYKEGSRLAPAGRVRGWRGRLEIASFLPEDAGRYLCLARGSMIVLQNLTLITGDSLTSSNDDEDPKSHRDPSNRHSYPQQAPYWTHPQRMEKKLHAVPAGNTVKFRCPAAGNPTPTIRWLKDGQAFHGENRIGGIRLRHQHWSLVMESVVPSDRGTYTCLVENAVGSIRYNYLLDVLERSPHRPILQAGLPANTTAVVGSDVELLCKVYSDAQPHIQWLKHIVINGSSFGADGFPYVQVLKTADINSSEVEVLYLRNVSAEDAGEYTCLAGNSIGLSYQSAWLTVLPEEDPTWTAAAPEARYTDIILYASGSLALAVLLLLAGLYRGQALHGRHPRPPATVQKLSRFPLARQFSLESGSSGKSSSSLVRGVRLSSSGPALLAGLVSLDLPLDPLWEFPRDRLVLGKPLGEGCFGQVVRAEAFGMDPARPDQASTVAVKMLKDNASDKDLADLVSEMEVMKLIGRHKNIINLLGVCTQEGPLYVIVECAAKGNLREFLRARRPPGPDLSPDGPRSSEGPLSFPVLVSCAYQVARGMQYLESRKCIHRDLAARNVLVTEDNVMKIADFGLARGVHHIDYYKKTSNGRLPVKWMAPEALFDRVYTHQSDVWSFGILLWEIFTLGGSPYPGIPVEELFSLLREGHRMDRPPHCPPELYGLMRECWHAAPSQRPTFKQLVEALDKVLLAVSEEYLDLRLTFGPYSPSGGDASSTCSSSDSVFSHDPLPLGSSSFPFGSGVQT
Experimental: Ba/F3-FGFR4 (Cellular Proliferation Assay)
as §1, with “a 384” for “a 96”, “plate, 100 nl of compound dilution in DMSO was sprayed before adding 50” for “plate, 180”, “containing 20000” for “containing 10000”, “of Ba/F3-FGFR4-transfected cells.” for “of Ba/F3-Flt3-transfected cells were pipette and 20 μl of compound dilution in DMSO was added.”, “hours, 10” for “hours, 40”

FGFR2 (h) = FGFR2 (h) (Homo sapiens, UniProt P21802); assay: FGFR2 (enzymatic assay), TR-FRET; assay type: biochemical; conditions: read-out: FGFR 2 pIC50 (converted)
FGFR2 (h), sequence (P21802 22-821): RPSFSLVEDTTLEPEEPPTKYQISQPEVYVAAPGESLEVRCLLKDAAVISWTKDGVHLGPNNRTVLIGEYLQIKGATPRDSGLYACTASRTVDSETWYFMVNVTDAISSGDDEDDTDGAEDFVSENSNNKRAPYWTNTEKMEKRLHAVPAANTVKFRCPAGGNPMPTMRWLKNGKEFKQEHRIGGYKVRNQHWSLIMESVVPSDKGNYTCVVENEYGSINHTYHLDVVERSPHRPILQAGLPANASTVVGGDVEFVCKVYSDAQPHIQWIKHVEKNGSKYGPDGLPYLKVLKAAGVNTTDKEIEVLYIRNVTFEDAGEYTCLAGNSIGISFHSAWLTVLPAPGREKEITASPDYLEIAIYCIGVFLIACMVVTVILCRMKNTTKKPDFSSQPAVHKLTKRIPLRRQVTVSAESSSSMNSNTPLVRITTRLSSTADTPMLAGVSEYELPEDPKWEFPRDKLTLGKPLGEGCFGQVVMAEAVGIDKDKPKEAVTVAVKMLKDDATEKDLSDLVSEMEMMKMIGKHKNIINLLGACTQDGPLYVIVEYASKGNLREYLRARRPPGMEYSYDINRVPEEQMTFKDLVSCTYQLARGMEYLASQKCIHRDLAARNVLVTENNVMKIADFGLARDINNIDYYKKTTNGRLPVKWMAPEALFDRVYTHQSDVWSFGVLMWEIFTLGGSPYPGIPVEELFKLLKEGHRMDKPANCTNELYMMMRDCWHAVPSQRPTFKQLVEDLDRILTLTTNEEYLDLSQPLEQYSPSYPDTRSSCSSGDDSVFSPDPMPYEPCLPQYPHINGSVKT
Experimental: In a final reaction volume of 30 μL, FGFR2 (h) (150 ng/ml) was incubated with 50 mM HEPES pH 7.5, 6 mM MnCl2, 1 mM DTT, 0.1 mM Na3VO4, 0.01% Triton-X-100, 500 nM Btn-Flt3 and 0.4 μM ATP in the presence of compound (1% DMSO final). […] Time-Resolved Fluorescence Resonance Energy Transfer (TR-FRET) signal (ex340 nm. Em 620 nm, em 655 nm) was measured afterwards and results are expressed in (Relative Fluorescence Units).

FGFR3 (h) = FGFR3 (h) (Homo sapiens, UniProt P22607); assay: FGFR3 (enzymatic assay), TR-FRET; assay type: biochemical; conditions: read-out: FGFR 3 pIC50 (converted)
FGFR3 (h), sequence (P22607 23-806): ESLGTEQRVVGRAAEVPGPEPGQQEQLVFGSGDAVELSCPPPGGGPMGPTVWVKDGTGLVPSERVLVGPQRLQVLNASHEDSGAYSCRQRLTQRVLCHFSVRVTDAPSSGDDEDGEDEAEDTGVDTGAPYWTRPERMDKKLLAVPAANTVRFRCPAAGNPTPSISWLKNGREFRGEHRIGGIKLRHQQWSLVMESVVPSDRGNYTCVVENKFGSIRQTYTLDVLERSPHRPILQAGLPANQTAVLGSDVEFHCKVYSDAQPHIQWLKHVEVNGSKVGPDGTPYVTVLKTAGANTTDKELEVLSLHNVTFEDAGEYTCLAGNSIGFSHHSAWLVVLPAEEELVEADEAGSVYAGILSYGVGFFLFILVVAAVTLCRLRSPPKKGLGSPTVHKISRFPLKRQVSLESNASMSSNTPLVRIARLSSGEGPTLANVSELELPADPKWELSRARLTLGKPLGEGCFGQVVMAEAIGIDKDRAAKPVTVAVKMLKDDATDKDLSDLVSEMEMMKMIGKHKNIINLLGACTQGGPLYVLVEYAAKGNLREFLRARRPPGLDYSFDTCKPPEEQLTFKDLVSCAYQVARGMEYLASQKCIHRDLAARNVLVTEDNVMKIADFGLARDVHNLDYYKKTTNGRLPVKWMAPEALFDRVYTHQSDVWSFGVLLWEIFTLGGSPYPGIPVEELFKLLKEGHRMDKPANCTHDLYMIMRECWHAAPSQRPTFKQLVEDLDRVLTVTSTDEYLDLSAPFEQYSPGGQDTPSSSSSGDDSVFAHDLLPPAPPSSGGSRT
Experimental: In a final reaction volume of 30 μL, FGFR3 (h) (40 ng/ml) was incubated with 50 mM HEPES pH 7.5, 6 mM MnCl2, 1 mM DTT, 0.1 mM Na3VO4, 0.01% Triton-X-100, 500 nM Btn-Flt3 and 25 μM ATP in the presence of compound (1% DMSO final). […] Time-Resolved Fluorescence Resonance Energy Transfer (TR-FRET) signal (ex340 nm. Em 620 nm, em 655 nm) was measured afterwards and results are expressed in RFU (Relative Fluorescence Units).

KDR (h) (VEGFR2), sequence (P35968 20-1356): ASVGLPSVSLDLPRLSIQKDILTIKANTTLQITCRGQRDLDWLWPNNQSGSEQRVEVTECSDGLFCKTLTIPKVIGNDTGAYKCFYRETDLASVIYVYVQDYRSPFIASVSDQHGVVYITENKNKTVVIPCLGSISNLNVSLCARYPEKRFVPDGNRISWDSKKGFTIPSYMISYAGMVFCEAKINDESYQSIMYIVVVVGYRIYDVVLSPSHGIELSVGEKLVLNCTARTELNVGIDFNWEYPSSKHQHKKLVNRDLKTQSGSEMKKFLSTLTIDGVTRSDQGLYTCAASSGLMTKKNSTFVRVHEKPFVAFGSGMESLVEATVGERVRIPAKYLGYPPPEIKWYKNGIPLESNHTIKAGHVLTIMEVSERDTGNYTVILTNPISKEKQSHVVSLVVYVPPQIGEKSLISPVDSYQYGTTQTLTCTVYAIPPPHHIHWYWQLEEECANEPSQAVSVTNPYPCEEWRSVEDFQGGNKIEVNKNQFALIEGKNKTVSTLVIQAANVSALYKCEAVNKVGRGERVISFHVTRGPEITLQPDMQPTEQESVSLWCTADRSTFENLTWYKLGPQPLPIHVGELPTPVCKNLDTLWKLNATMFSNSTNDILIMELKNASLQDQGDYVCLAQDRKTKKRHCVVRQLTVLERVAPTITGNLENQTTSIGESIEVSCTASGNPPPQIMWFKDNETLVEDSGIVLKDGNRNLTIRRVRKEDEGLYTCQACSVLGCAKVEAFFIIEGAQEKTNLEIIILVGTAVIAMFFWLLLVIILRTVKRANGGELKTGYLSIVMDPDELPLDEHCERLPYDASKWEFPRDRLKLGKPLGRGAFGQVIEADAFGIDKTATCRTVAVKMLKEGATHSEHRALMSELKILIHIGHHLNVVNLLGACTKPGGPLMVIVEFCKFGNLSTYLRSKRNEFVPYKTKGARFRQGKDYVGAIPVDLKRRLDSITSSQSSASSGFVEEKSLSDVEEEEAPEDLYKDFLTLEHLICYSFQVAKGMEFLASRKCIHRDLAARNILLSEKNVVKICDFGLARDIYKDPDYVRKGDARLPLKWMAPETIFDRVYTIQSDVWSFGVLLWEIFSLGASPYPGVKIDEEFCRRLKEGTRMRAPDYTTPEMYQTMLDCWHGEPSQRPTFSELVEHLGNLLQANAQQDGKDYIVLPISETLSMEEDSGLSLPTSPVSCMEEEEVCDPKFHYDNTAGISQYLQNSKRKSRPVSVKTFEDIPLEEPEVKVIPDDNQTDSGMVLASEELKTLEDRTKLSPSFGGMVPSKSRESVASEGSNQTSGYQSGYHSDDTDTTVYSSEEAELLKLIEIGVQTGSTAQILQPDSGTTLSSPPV

IC50 (KDR (h) (VEGFR2))	BAF3-FLT3 (MIN IL3) 96 well pIC50 ([1]; minus IL3)	BAF3-FLT3 (MIN IL3) 384 well pIC50 ([1]; minus IL3)	BAF3-FGFR4 pIC50 [2]	IC50 (FGFR2 (h))	IC50 (FGFR3 (h))	BAF3-FLT3 (MIN IL3) 96 well pIC50 ([1]; minus IL3, 96 well)	BAF3-FLT3 (MIN IL3) 384 well pIC50 ([1]; minus IL3, 384 well)	BAF3-FGFR4 pIC50 ([2]; 384 well)	Compound
2950 nM	<5	<5	<5	81.3 nM	29.5 nM				COc1cc(OC)cc(N(CC2CC2)c2ccc3ncc(-c4c[nH]cn4)nc3c2)c1 [Compound 39]
302 nM		<5	<5.35	11 nM	11.2 nM				COc1cc(OC)cc(N(CCCNCC(=O)O)c2ccc3ncc(-c4ccnc(C(=O)NCCCCN)c4)nc3c2)c1 [Compound 44]
5500 nM				331 nM	191 nM	~5.12	<5	<5	COc1cc(OC)cc(N(CC2CC2)c2ccc3ncc(N4CCN(C)CC4)nc3c2)c1 [Compound 64]
> 1000 nM		<5	<5	91.2 nM	40.7 nM				COc1cc(OC)cc(N(CCO)c2ccc3ncc(N4CCC(CN)CC4)nc3c2)c1 [Compound 84]
> 10000 nM				1820 nM	417 nM	<5	<5	<5	COc1cc(OC)cc(N(CC2CC2)c2ccc3ncc(-c4ccc5[nH]ccc5c4)nc3c2)c1 [Compound 86]
> 10000 nM	<5	<5	<5	> 10000 nM	2340 nM				COc1cc(OC)cc(N(CC2CC2)c2ccc3ncc(C(=O)N4CCC4)nc3c2)c1 [Compound 93]

The remaining lines, values behind:

Compound	IC50 (KDR (h) (VEGFR2))	BAF3-FLT3 (MIN IL3) 96 well pIC50 ([1]; minus IL3)	BAF3-FLT3 (MIN IL3) 384 well pIC50 ([1]; minus IL3)	BAF3-FGFR4 pIC50 [2]	IC50 (FGFR2 (h))	IC50 (FGFR3 (h))	BAF3-FLT3 (MIN IL3) 96 well pIC50 ([1]; minus IL3, 96 well)	BAF3-FLT3 (MIN IL3) 384 well pIC50 ([1]; minus IL3, 384 well)	BAF3-FGFR4 pIC50 ([2]; 384 well)
COc1cc(OC)cc(N(CCCO)c2ccc3ncc(-c4ccnc(C(=O)N5CCOCC5)c4)nc3c2)c1 [Compound 43]	245 nM		<5	6.0	13.2 nM	3.8 nM			
COc1cc(OC)cc(N(CC2CC2)c2ccc3ncc(N4CCN(CCO)CC4)nc3c2)c1 [Compound 49]	3980 nM	5.2	<5	<5	398 nM	126 nM			
COc1cc(OC)cc(N(CCN2CCNCC2)c2ccc3ncc(-c4ccc(N)nc4)nc3c2)c1 [Compound 59]	45.7 nM		5.28	6.1	4.07 nM	9.12 nM			
COc1cc(OC)cc(N(CC2CC2)c2ccc3ncc(N4CCOCC4)nc3c2)c1 [Compound 63]	6610 nM				741 nM	138 nM	<5	<5	<5
COc1cc(OC)cc(N(CCNC(C)C)c2ccc3ncc(N4CCC(CN)CC4)nc3c2)c1 [Compound 67]	447 nM		5	6.2	6.31 nM	16.6 nM			
COc1cc(OC)cc(N(CCN2CCN(C(C)=O)CC2)c2ccc3ncc(-c4ccc(N)nc4)nc3c2)c1 [Compound 68]	229 nM		<5	5.7	33.9 nM	33.9 nM			
COc1cc(OC)cc(N(CCNC(C)C)c2ccc3ncc(-n4cnc(CO)c4)nc3c2)c1 [Compound 77]	513 nM		<5	6.9	9.12 nM	12 nM			
COc1cc(OC)cc(N(CC2CC2)c2ccc3ncc(-c4nnc(C)o4)nc3c2)c1 [Compound 85]	8320 nM				380 nM	191 nM	<5	<5	<5
COc1cc(OC)cc(N(CC2CC2)c2ccc3ncc(-c4ccc5c(c4)OCO5)nc3c2)c1 [Compound 87]	> 10000 nM				955 nM	209 nM		<5.4	<5
COc1cc(OC)cc(N(CC2CC2)c2ccc3ncc(-c4cnc5[nH]ccc5c4)nc3c2)c1 [Compound 88]	> 10000 nM				1150 nM	380 nM	<5	<5	<5
COc1cc(OC)cc(N(CC2CC2)c2ccc3ncc(-c4cccc(N5CCOCC5)c4)nc3c2)c1 [Compound 92]	1950 nM	<5	<5	<5	661 nM	263 nM			
COc1cc(OC)cc(N(CC2CC2)c2ccc3ncc(-n4cccn4)nc3c2)c1 [Compound 95]	> 10000 nM	<5	<5	<5	> 10000 nM	1450 nM			
CNc1ccc(-c2cnc3ccc(N(CCCNCC(F)(F)F)c4cc(OC)cc(OC)c4)cc3n2)cn1 [Compound 129]	363 nM		<5	5.4	37.2 nM	52.5 nM			
COc1cc(OC)cc(N(CCCO)c2ccc3ncc(-c4ccnc(C(=O)NCCCCCN)c4)nc3c2)c1 [Compound 130]	550 nM		<5	5.0	8.32 nM	11.2 nM			
